Earlier results on four substances are cited in US11261215B2, “Somatostatin prodrugs” (YISSUM RESEARCH DEVELOPMENT COMPANY OF THE HEBREW …, priority 2017, dated 2022).

Numbered stars: 1 amine (or outer) side, 2 acyl side, 3 side chain; on linkers, the order of the positions; unused ones are H or OH. Bridge positions count the residues as written; N and C are the ends. Square brackets hold non-standard residues; d marks the D form. Ends that are not written are not given here. PheC3 = Phe building unit, N-alpha-omega-functionalized derivative for backbone cyclization; N(2-aminoethyl)Phe = O=C([C@H](Cc1ccccc1)N(CCN[*:3])[*:1])[*:2]; dNMeW = CN[C@H](Cc1c[nH]c2ccccc12)C(=O)O; NMeF = CN[C@@H](Cc1ccccc1)C(=O)O; NMeK = CN[C@@H](CCCCN)C(=O)O

One data set deals with somatostatin receptors. The note with it: cited from earlier work.
In data set [1] the test system is GH, glucagon and insulin secretion. The note with it: cited from earlier work.
A further data set has as its target SSTR5 (Homo sapiens, UniProt P35346). The note with it: cited from earlier work.
For data set [2], the system named is amylase and lipase release from the pancreas. The note with it: in vivo; cited from earlier work.
The conditions of data set [3]: rats, oral administration; cited from earlier work.

Chain of SSTR5 (P35346 whole entry, species assumed): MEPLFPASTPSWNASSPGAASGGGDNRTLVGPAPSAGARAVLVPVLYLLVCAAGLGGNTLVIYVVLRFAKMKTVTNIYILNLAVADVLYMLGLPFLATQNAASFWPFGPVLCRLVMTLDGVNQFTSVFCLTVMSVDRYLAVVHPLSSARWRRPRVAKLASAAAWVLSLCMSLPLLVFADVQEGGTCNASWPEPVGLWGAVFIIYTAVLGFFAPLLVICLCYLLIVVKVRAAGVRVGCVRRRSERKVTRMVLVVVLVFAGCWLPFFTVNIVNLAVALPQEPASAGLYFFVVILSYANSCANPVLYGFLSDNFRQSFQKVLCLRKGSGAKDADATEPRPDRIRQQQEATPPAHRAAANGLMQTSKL

For the substance “GABA-Phe-Trp-DTrp-Lys-Thr-Phe-GlyC3-NH2 (XFWWKTFG; not fully specified; GABA, backbone cyclized, C-terminal amide; MOD_RES (1)..(1) 4Abu, GABA; MOD_RES (1)..(8) backbone-to-end cyclization between the N-alpha-omega-functionalized derivative of GlyC3 and the N-terminus; MOD_RES (4)..(4) D-Trp; MOD_RES (8)..(8) AMIDATION; MOD_RES (8)..(8) GlyC3 building unit) [PTR-3173]”, the “selectivity toward the somatostatin receptors” value in the data set with somatostatin receptors was “selective towards the SSTR2, SSTR4 and SSTR5”. Also, the “effect on insulin secretion” value in data set [1] (at physiological concentrations) is given as “no effect”. For the same substance, in data set [1] (in vivo), the “GH:insulin potency ratio” value is listed as > 10,000 and the “potency in the in vivo inhibition of GH relative to that of glucagon” value is given as 1000 fold.

In the case of “PheC3-Cys-Phe-DTrp-Lys-Thr-Cys-Phe-PheN3-X (FCFWKTCFF; not fully specified; backbone cyclized; MOD_RES (1)..(1) PheC3 building unit; MOD_RES (1)..(9) backbone cyclization between the N-alpha-omega- functionalized derivative of X1 and the N-alpha-omega- functionalized derivative of X9; DISULFID (2)..(7) bridge; MOD_RES (4)..(4) D-Trp; MOD_RES (9)..(9) PheN3 building unit; MOD_RES (9)..(9) AMIDATION) [PTR-3205]”, the “selectivity toward the somatostatin receptors” value in the data set with somatostatin receptors was “selective towards SSTR2”.

For “PheN2-Tyr-DTrp-Lys-Val-PheC3-Thr-NH2 ([N(2-aminoethyl)Phe]Y[dW]KV[PheC3]T-NH2; bridge 1-6; not fully specified (bridges); printed as PheN2-Tyr-DTrp-Lys-Val-PheC3-Thr-NH2) [PTR-3046]”, in the data set with SSTR5, the IC50 result is “nanomolar range”. For the same substance, the “selectivity toward the somatostatin receptors” value in the data set with somatostatin receptors is reported as “selective toward the SSTR5”. In addition, the “bombesin- and caerulein-induced amylase and lipase release from the pancreas” value in data set [2] was “inhibits”. Besides, the “GH or glucagon release” value in data set [1] (in vivo) is “without inhibiting”.

With “c(PF(NMe)w(NMe)KT(NMe)F) (cyclo(PF[dNMeW][NMeK]T[NMeF]); SMILES C[C@@H](O)[C@@H]1NC(=O)[C@H](CCCCN)N(C)C(=O)[C@@H](Cc2c[nH]c3ccccc23)N(C)C(=O)[C@H](Cc2ccccc2)NC(=O)[C@@H]2CCCN2C(=O)[C@H](Cc2ccccc2)N(C)C1=O) [Somato8]”, the “calculated absolute oral bioavailability” value in data set [3] was about 10%.
